From patent US5591741A, “Fungicidal spiroheterocyclic derivatives” (American Cyanamid Company, priority 1993, dated 1997)

Tests used:
[1] = tested on: Pseudocercosporella herpotrichoides; test: Activity against wheat eyespot in-vitro (PHI); assay type: cell-based; conditions: 10 ppm, 10 days, 20° C., mycelial growth
Outline: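 P. herpotrichoides mycelial fragments (5×10^4/ml) grown in half-strength PDB with compound at 10 ppm final, added from acetone. Incubated 10 days at 20 °C; mycelial growth rated against untreated or diluent controls.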

[2] = tested on: Erysiphe graminis f.sp. hordei; test: Activity against barley powdery mildew, direct therapeutic (EGT); assay type: in vivo; conditions: direct therapeutic foliar spray, 600 ppm, up to 7 days
Outline: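 Barley seedlings (cv. Golden Promise, single-leaf stage) were dusted with mildew conidia one day before a therapeutic foliar spray of 600 ppm compound. Plants were kept at 18 °C and 40% humidity for up to 7 days, and sporulating leaf area was rated against untreated or diluent-sprayed controls.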

Leptosphaeria nodorum = test: Activity against wheat leafspot (LN); assay type: in vivo; conditions: direct therapeutic foliar spray, 600 ppm, 6-8 days
Outline: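 Wheat cv Norman at single-leaf stage spray-inoculated with 1.5×10^6 conidia/ml, held 24 h at high humidity, then sprayed therapeutically with test compound at 600 ppm. Kept 6-8 days at 22° C, 70% humidity; lesion density per leaf rated against untreated or diluent-sprayed controls.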

Alternaria solani = test: Activity against tomato early blight (AS); assay type: in vivo; conditions: Table VI; tomato seedlings, contact prophylactic foliar spray, 4 days
Outline: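 Foliar contact prophylactic spray on tomato seedlings (cv Outdoor Girl, second true leaf expanded) in acetone/water 50:50 with 0.04% Tween 20; 24 h at 20° C, 40% R.H., then inoculation with 10^4 spores/ml A. solani conidia. Kept moist at 21° C; lesion cover rated 4 days post-inoculation against untreated or diluent-sprayed controls.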

[3] = tested on: Erysiphe graminis f.sp. hordei; test: Direct protectant activity against barley powdery mildew (EGP); assay type: in vivo; conditions: direct protectant foliar spray, 8 days
Outline: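 Barley seedlings (cv Golden Promise, single-leaf stage) were foliar-sprayed, held 24 h at 18 °C/40% RH, then dusted with mildew conidia. After 8 days at 18 °C/40% RH, sporulating leaf area was scored as a rating against untreated or diluent-sprayed controls.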

Botrytis cinerea = test: Direct protectant activity against broad bean grey mould (BCB); assay type: in vivo; conditions: direct protectant foliar spray, 600 ppm, 4 days
Outline: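 Broad bean plants (cv The Sutton, two leaf pairs) sprayed on upper leaf surfaces at 600 ppm, then inoculated 24 h later with 10^6 conidia/ml. Kept 4 days at 22 °C, high humidity; disease control rated from % leaf area with lesions against untreated or diluent controls.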

Plasmopara viticola = test: Antisporulant activity against vine downy mildew (PVA); assay type: in vivo; conditions: vine leaves, antisporulant foliar spray, 600 ppm, 750 l/ha
Outline: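 Cabernet Sauvignon vines (~8 cm) inoculated on lower leaf surfaces with 5×10^4 zoosporangia/ml, held 24 h at 21° C high humidity then 24 h glasshouse. Infected leaves sprayed underside with 600 ppm compound in 1:1 water/acetone, 0.04% Tween 20, 750 l/ha; 96 h glasshouse, 24 h humidity. Sporulating leaf area rated versus control.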

Pyricularia oryzae = assay type: in vivo; conditions: rice seedlings, direct therapeutic foliar spray, 600 ppm, 4-5 days
Phytophthora infestans = assay type: in vivo; conditions: tomato, direct protectant foliar spray
Venturia inaequalis = test: Activity against apple scab in-vitro (VII); assay type: cell-based; conditions: 10 ppm, 10 days, 20° C., mycelial growth
Outline: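 Compound in acetone was tested at 10 ppm final in half-strength Potato Dextrose Broth inoculated with V. inaequalis mycelial fragments and spores at 5×10^4 propagules/ml. After 10 days at 20° C, mycelial growth was rated against untreated or diluent controls.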

Rhizoctonia solani = test: Activity against Rhizoctonia in-vitro (RSI); assay type: cell-based; conditions: 10 ppm, 10 days, 20° C., mycelial growth
Outline: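 R. solani mycelial fragments (5×10^4/ml) in half-strength Potato Dextrose Broth with compound added from acetone to 10 ppm final. Mycelial growth assessed after 10 days at 20° C, rated against untreated or diluent control.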

Compound: CC1CN(C2COC3(CCCCC3)C2)CC(C)O1 (stereo not drawn) [Compound 36]
- disease control rating PHI [1]: 0 (less than 50% disease control)
- disease control rating EGT [2]: 2 (greater than 80% disease control)
- disease control rating LN (Leptosphaeria nodorum): 0 (less than 50% disease control)
- disease control rating AS (Alternaria solani): 0 (less than 50% disease control)
- disease control rating EGP [3]: 2 (greater than 80% disease control)
- disease control rating BCB (Botrytis cinerea): 0 (less than 50% disease control)
- disease control rating PVA (Plasmopara viticola): 0 (less than 50% disease control)
- disease control rating PO (Pyricularia oryzae): 0 (less than 50% disease control)
- disease control rating PIP (Phytophthora infestans): 0 (less than 50% disease control)
- disease control rating VII (Venturia inaequalis): 1 (about 50-80% disease control)
- disease control rating RSI (Rhizoctonia solani): 0 (less than 50% disease control)

Compound: CC(C)(C)C1CCC2(CC1)CC(N1CCCCC1)CO2 (stereo not drawn) [Compound 10]
- disease control rating PHI [1]: 1 (about 50-80% disease control)
- disease control rating EGT [2]: 2 (greater than 80% disease control)
- disease control rating LN (Leptosphaeria nodorum): 1 (about 50-80% disease control)
- disease control rating AS (Alternaria solani): 0 (less than 50% disease control)
- disease control rating EGP [3]: 2 (greater than 80% disease control)
- disease control rating BCB (Botrytis cinerea): 2 (greater than 80% disease control)
- disease control rating PVA (Plasmopara viticola): 0 (less than 50% disease control)
- disease control rating PO (Pyricularia oryzae): 0 (less than 50% disease control)
- disease control rating PIP (Phytophthora infestans): 0 (less than 50% disease control)
- disease control rating VII (Venturia inaequalis): 1 (about 50-80% disease control)
- disease control rating RSI (Rhizoctonia solani): 0 (less than 50% disease control)

Compound: CCN(C1COC2(CCC(C(C)(C)C)CC2)C1)C1CC2CCC1C2 (stereo not drawn) [Compound 129]
- disease control rating PHI [1]: 0 (less than 50% disease control)
- disease control rating EGT [2]: 2 (greater than 80% disease control)
- disease control rating LN (Leptosphaeria nodorum): 0 (less than 50% disease control)
- disease control rating AS (Alternaria solani): 0 (less than 50% disease control)
- disease control rating EGP [3]: 2 (greater than 80% disease control)
- disease control rating BCB (Botrytis cinerea): 0 (less than 50% disease control)
- disease control rating PVA (Plasmopara viticola): 0 (less than 50% disease control)
- disease control rating PO (Pyricularia oryzae): 0 (less than 50% disease control)
- disease control rating PIP (Phytophthora infestans): 0 (less than 50% disease control)
- disease control rating VII (Venturia inaequalis): 1 (about 50-80% disease control)
- disease control rating RSI (Rhizoctonia solani): 0 (less than 50% disease control)

Compound: CC(C)CC(C)NC1COC2(CCC(C(C)(C)C)CC2)C1 (stereo not drawn) [Compound 110]
- disease control rating PHI [1]: 1 (about 50-80% disease control)
- disease control rating EGT [2]: 2 (greater than 80% disease control)
- disease control rating LN (Leptosphaeria nodorum): 0 (less than 50% disease control)
- disease control rating AS (Alternaria solani): 0 (less than 50% disease control)
- disease control rating EGP [3]: 2 (greater than 80% disease control)
- disease control rating BCB (Botrytis cinerea): 1 (about 50-80% disease control)
- disease control rating PVA (Plasmopara viticola): 0 (less than 50% disease control)
- disease control rating PO (Pyricularia oryzae): 0 (less than 50% disease control)
- disease control rating PIP (Phytophthora infestans): 2 (greater than 80% disease control)
- disease control rating VII (Venturia inaequalis): 1 (about 50-80% disease control)
- disease control rating RSI (Rhizoctonia solani): 1 (about 50-80% disease control)

Compound: CN(CC1CCCCC1)C1COC2(CCC(C(C)(C)C)CC2)C1 (stereo not drawn) [Compound 91]
- disease control rating PHI [1]: 2 (greater than 80% disease control)
- disease control rating EGT [2]: 2 (greater than 80% disease control)
- disease control rating LN (Leptosphaeria nodorum): 1 (about 50-80% disease control)
- disease control rating AS (Alternaria solani): 0 (less than 50% disease control)
- disease control rating EGP [3]: 2 (greater than 80% disease control)
- disease control rating BCB (Botrytis cinerea): 1 (about 50-80% disease control)
- disease control rating PVA (Plasmopara viticola): 0 (less than 50% disease control)
- disease control rating PO (Pyricularia oryzae): 0 (less than 50% disease control)
- disease control rating PIP (Phytophthora infestans): 2 (greater than 80% disease control)
- disease control rating VII (Venturia inaequalis): 0 (less than 50% disease control)
- disease control rating RSI (Rhizoctonia solani): 0 (less than 50% disease control)

Compound: CCN(CC(C)(C)C)C1COC2(CCC(C(C)(C)C)CC2)C1 (stereo not drawn) [Compound 132]
- disease control rating PHI [1]: 0 (less than 50% disease control)
- disease control rating EGT [2]: 2 (greater than 80% disease control)
- disease control rating LN (Leptosphaeria nodorum): 0 (less than 50% disease control)
- disease control rating AS (Alternaria solani): 0 (less than 50% disease control)
- disease control rating EGP [3]: 2 (greater than 80% disease control)
- disease control rating BCB (Botrytis cinerea): 0 (less than 50% disease control)
- disease control rating PVA (Plasmopara viticola): 0 (less than 50% disease control)
- disease control rating PO (Pyricularia oryzae): 0 (less than 50% disease control)
- disease control rating PIP (Phytophthora infestans): 0 (less than 50% disease control)
- disease control rating VII (Venturia inaequalis): 1 (about 50-80% disease control)
- disease control rating RSI (Rhizoctonia solani): 0 (less than 50% disease control)

Compound: CN(C)CCC1COC2(CCC(C(C)(C)C)CC2)C1 (stereo not drawn) [Compound 191]
- disease control rating PHI [1]: 0 (less than 50% disease control)
- disease control rating EGT [2]: 0 (less than 50% disease control)
- disease control rating LN (Leptosphaeria nodorum): 0 (less than 50% disease control)
- disease control rating AS (Alternaria solani): 0 (less than 50% disease control)
- disease control rating EGP [3]: 2 (greater than 80% disease control)
- disease control rating BCB (Botrytis cinerea): 0 (less than 50% disease control)
- disease control rating PVA (Plasmopara viticola): 0 (less than 50% disease control)
- disease control rating PO (Pyricularia oryzae): 0 (less than 50% disease control)
- disease control rating PIP (Phytophthora infestans): 0 (less than 50% disease control)
- disease control rating VII (Venturia inaequalis): 0 (less than 50% disease control)
- disease control rating RSI (Rhizoctonia solani): 0 (less than 50% disease control)

Compound: CCCCCCCCCCCCNC1COC2(CCC(C(C)(C)C)CC2)C1 (stereo not drawn) [Compound 43]
- disease control rating PHI [1]: 0 (less than 50% disease control)
- disease control rating EGT [2]: 2 (greater than 80% disease control)
- disease control rating LN (Leptosphaeria nodorum): 2 (greater than 80% disease control)
- disease control rating AS (Alternaria solani): 0 (less than 50% disease control)
- disease control rating EGP [3]: 2 (greater than 80% disease control)
- disease control rating BCB (Botrytis cinerea): 0 (less than 50% disease control)
- disease control rating PVA (Plasmopara viticola): 0 (less than 50% disease control)
- disease control rating PO (Pyricularia oryzae): 0 (less than 50% disease control)
- disease control rating PIP (Phytophthora infestans): 0 (less than 50% disease control)
- disease control rating VII (Venturia inaequalis): 2 (greater than 80% disease control)
- disease control rating RSI (Rhizoctonia solani): 0 (less than 50% disease control)

Compound: CCCCCCCCCCCCCCCCCCNC1COC2(CCC(C(C)(C)C)CC2)C1 (stereo not drawn) [Compound 46]
- disease control rating PHI [1]: 0 (less than 50% disease control)
- disease control rating EGT [2]: 2 (greater than 80% disease control)
- disease control rating LN (Leptosphaeria nodorum): 0 (less than 50% disease control)
- disease control rating AS (Alternaria solani): 0 (less than 50% disease control)
- disease control rating EGP [3]: 2 (greater than 80% disease control)
- disease control rating BCB (Botrytis cinerea): 0 (less than 50% disease control)
- disease control rating PVA (Plasmopara viticola): 0 (less than 50% disease control)
- disease control rating PO (Pyricularia oryzae): 0 (less than 50% disease control)
- disease control rating PIP (Phytophthora infestans): 0 (less than 50% disease control)
- disease control rating VII (Venturia inaequalis): 0 (less than 50% disease control)
- disease control rating RSI (Rhizoctonia solani): 0 (less than 50% disease control)
